From patent US6413974B1, “6,9,-disubstituted 2-[trans-(4-aminocyclohexyl) amino] purines” (Aventis Pharmaceuticals Inc., priority 1998, dated 2002) come the findings set out here.

In one assay the test system is DMS-114. Briefly: In vitro tumor cell proliferation, DMS-114. The following applies: read-out: In vitro Tumor Cell Proliferation (IC50, μM) Lung DMS-114. The format is cell-based, human. On the procedure:
(§1) The proliferation of tumor cells was measured using a sulforhodamine B assay as described in Skehan, P., et al., J. Natl. Cancer Inst. […] Tumor cells were harvested with trypsin-EDTA, cells that excluded trypan blue were counted, added to 96-well plates and incubated overnight at 37° C. Drug was added to the wells following dilution in culture medium. Three days later, the medium was removed and replenished with medium containing fresh drug and incubated an additional 4 days. The cells were then fixed with 0.1 ml 10% trichloroacetic acid for 60 min at 4° C. The plates were rinsed five times with tap water, air-dried and stained for 30 min with 0.4% sulforhodamine B in 1% acetic acid and air-dried.
(§2) Alternatively, the CyQUANT cell proliferation assay was used to quantify tumor cell proliferation. Tumor cells were harvested with trypsin-EDTA, cells that excluded trypan blue were counted, added to 96-well plates and incubated overnight at 37° C. Drug was added to the wells following dilution in culture medium. Three days later the medium was removed and the plates frozen at −80° C. for at least 30 minutes.

The next assay addresses T1, cdk2/cyclin E (Homo sapiens, UniProt P24941).
T1 construct: made in house; host or cells: insect cells (baculovirus co-infection)
Description: Cyclin-Dependent Kinase 2 Assay (cdk-2 inhibition). The format is biochemical. Particulars: GST-Rb substrate, 30 min at 30° C. As for the experimental part:
(§3) The transformed bacteria were grown overnight to saturation, then diluted in YT broth and incubated at 37° C. for 2 h. The protein was induced by incubation with 0.1 mM isopropylthioglycoside for 3 h. Following sedimentation by centrifugation, the cells were lysed by sonication in STE buffer ([…] NaCl, 10 mM Tris, pH 8.0, 1 mM EDTA) containing 10% sarkosyl. Particulate matter was removed by centrifugation and the lysate was incubated with glutathione-Sepharose at 4° C. The beads were washed with kinase buffer and then quantitation of Coomassie blue-stained proteins separated by SDS-PAGE was performed using a protein standard of known concentration.
(§4) Pre-wet Millipore Multiscreen 96-well filter plates (0.65 μm Durapore filters) with 200 μl kinase buffer (50 mM HEPES, pH 7.5, 10 mM MgCl2, 1 mM EGTA). GST-Rb (0.5 μg) bound to glutathione-Sepharose beads is added in 50 μl per well and the solution removed by application of vacuum. […] Add 0.1 μg cdk4/cyclin D1 (insect cell lysate) to initiate assay. Incubate 30 min at 37° C. Terminate reaction by filtration on Millipore Vacuum Manifold. Wash four times with TNEN (20 mM Tris, pH 8.0, 100 mM Na Cl, 1 mM EDTA, 0.5% nonidet P-40). After drying the plates at room temperature, the filter plates were placed in adapter plates (Packard) and 40 μl of Microscint-O® (Packard) was added to each well. Top Seal A film was used to cover the plates before counting in a Top Count Scintillation Counter.
GST-Rb as described above for cdk4/cyclin D1
Assay conditions for cdk2/cyclin E were identical to those for cdk4/cyclin D1 including the substrate. The concentration of recombinant cdk2/cyclin E in the assay was 0.1 μg per 100 μl assay. Incubation was for 30 min at 30° C.

A further assay relates to MDA-MB-231. Description: In vitro tumor cell proliferation, MDA-MB-231. The format is cell-based, human. Particulars: read-out: In vitro Tumor Cell Proliferation (IC50, μM) Breast MDA-MB-231. As for the experimental part: as §1, §2
Another assay relates to HT-29. Briefly: In vitro tumor cell proliferation, HT-29. The format is cell-based, human. The following applies: read-out: In vitro Tumor Cell Proliferation (IC50, μM) Colon HT-29 (converted). As for the experimental part:
as §1, §2
HT-29 is a human colon adenocarcinoma, moderately well-differentiated grade II (HTB 38);

A further assay relates to MDA-MB-435. Briefly: In vitro tumor cell proliferation, MDA-MB-435. Type of assay: cell-based, human. The following applies: read-out: In vitro Tumor Cell Proliferation (IC50, μM) Breast MDA-MB-435. As for the experimental part: as §1, §2
The next assay addresses T2, cdk4/cyclin D1 (Homo sapiens, UniProt P11802).
T2 construct: made in house; host or cells: Sf9 insect cells (Bac-to-Bac baculovirus, pFastBac)
Description: Cyclin-dependent kinase 4 Assay. Type of assay: biochemical. Particulars: cdk4/cyclin D1, GST-Rb substrate, 10 μM ATP, 30 min at 37° C.; read-out: CDK4 Inhibition IC50. As for the experimental part: The IC50 values for cdk-4 inhibition were by the following method:
as §3
The cDNA for human cyclin D1 was cloned by RT PCR using […] from MCF-7 cells. […] Bacmid DNA was used to transfect Sf9 insect cells to produce recombinant virus. Following plaque purification of the virus, the viral preparations were amplified until high titer stocks were acheived.
Lysates were prepared by lysis of Sf9 cells coinfected with cdk4 and cyclin D1 in 50 mM HEPES, pH 7.5, 10 mM MgCl2, 1 mM DTT, 0.1 mM phenylmethylsulfonyl fluoride, 5 μg/ml aprotinin, and 5 μg/ml leupeptin using a PARR bomb under 500 p.s.i nitrogen pressure for 5 min at 4° C. Insoluble material was sedimented at 10,000×g for 20 min at 4° C. Glycerol was added to the supernatant to 10% and stored at −80° C. in aliquots.
as §4

Another assay relates to PC-3. Description: In vitro tumor cell proliferation, PC-3. Type of assay: cell-based, human. Particulars: read-out: In vitro Tumor Cell Proliferation (IC50, μM) Prostate PC-3. As for the experimental part:
as §1, §2

A further assay has as its system DU 145. Briefly: In vitro tumor cell proliferation, DU 145. Type of assay: cell-based, human. Particulars: read-out: In vitro Tumor Cell Proliferation (IC50, μM) Prostate DUI45. As for the experimental part: as §1, §2
The subject of a further assay is A549. Briefly: In vitro tumor cell proliferation, A549. The format is cell-based, human. The following applies: read-out: In vitro Tumor Cell Proliferation (IC50, μM) Lung A549. As for the experimental part: as §1, §2
The subject of the next assay is Colo-205. Description: In vitro tumor cell proliferation, Colo-205. Particulars: read-out: In vitro Tumor Cell Proliferation (IC50, μM) Colon Colo-205. Type of assay: cell-based, human. As for the experimental part:
as §1, §2

Setting [1] is: Homo sapiens, DMS-114, values marked * (mark not explained).
[2] abbreviates: values marked * (mark not explained), dihydrochloride.
[3] abbreviates: Homo sapiens, MDA-MB-231, values marked * (mark not explained).
Where [4] appears, read: Homo sapiens, HT-29, values marked * (mark not explained).
Setting [5] is: Homo sapiens, MDA-MB-435, values marked * (mark not explained).
The mark [6] stands for this setting: Homo sapiens, PC-3, values marked * (mark not explained).
The mark [7] stands for this setting: Homo sapiens, DU-145, values marked * (mark not explained).
[8] abbreviates: Homo sapiens, COLO 205, values marked * (mark not explained).

Values joined by “and” are separate entries in the source; they are usually repeats but may differ in a detail not shown here. Identical values can stand only once. Counter-ions that a name gives are not always drawn. Like-named read-outs stand apart in the source and are kept apart here. Bounds are passed on as bounds.

T2 sequence (P11802 whole entry): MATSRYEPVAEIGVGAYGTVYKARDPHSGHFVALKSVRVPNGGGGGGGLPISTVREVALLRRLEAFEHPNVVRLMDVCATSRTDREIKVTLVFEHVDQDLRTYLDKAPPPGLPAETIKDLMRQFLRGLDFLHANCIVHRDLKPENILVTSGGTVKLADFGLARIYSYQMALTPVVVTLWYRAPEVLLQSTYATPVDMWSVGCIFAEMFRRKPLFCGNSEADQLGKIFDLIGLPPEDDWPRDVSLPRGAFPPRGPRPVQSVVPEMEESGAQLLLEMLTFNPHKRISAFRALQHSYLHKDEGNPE
T2 sequence (P24385 whole entry partner): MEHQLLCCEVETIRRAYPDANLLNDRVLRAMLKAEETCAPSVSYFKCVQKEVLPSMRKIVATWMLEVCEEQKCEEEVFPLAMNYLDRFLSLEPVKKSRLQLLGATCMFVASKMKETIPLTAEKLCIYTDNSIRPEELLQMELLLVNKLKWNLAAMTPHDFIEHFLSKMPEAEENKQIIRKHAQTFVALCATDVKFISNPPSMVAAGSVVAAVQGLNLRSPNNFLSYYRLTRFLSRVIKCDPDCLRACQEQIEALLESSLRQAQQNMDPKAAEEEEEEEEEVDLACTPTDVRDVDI

With `N[C@H]1CC[C@H](Nc2nc(NCCCN3CCOCC3)c3ncn(C4CCCC4)c3n2)CC1` [Example 9, 2-[Trans-(4-aminocyclohexyl)amino]-6-[3-(4-morpholinyl)propylamino]-9-cyclopentylpurine dihydrochloride], the IC50 was 3.7 µM in the assay on DMS-114 (setting [1]); 2.8 µM in the assay on DMS-114 (setting [2]); 0.09 µM and 0.15 µM against cdk2/cyclin E; 2.7 µM with MDA-MB-231 (setting [3]); 2.6 µM with MDA-MB-231 (setting [2]); 5.6 µM in the assay on HT-29 (setting [4]). Also, the IC50 was 5.1 µM in the assay on HT-29 (setting [2]); 5.2 µM in the assay on MDA-MB-435 (setting [5]); 6 µM with MDA-MB-435 (setting [2]); 0.3 µM and 0.4 µM on cdk4/cyclin D1; 4.6 µM with PC-3 (setting [6]); 3.1 µM in the assay with PC-3 (setting [2]). In addition, the IC50 in the assay on DU 145 (setting [7]) is 4.4 µM; with DU 145 (setting [2]), 3.2 µM.
For the molecule `N[C@H]1CC[C@H](Nc2nc(NCc3ccccc3Cl)c3ncn(C4CCCC4)c3n2)CC1` [Example 18, 2-[Trans-(4-aminocyclohexyl)amino]-6-[(2-chlorobenzyl)amino]-9-cyclopentylpurine dihydrochloride], the IC50 at cdk2/cyclin E is 0.12 µM and 0.1 µM; in the assay with HT-29 (setting [4]) it was 2.4 µM; with HT-29 (setting [2]), 2.5 µM and 4.1 µM; in the assay with A549 (Homo sapiens, A549, values marked * (mark not explained)), 1.7 µM; in the assay with A549 (setting [2]), 2.2 µM and 1.8 µM; in the assay with MDA-MB-435 (setting [5]), 8 µM. The IC50 with MDA-MB-435 (setting [2]) is 8.2 µM; on cdk4/cyclin D1, 1.3 µM and 1 µM.
Turning to `CCC(C)(CO)Nc1nc(N[C@H]2CC[C@H](N)CC2)nc2c1ncn2C1CCCC1` (stereo partly drawn) [Example 23, dihydrochloride], the IC50 in the assay with DMS-114 (setting [1]) was 28 µM; in the assay with DMS-114 (setting [2]) it was 23 µM; against cdk2/cyclin E, 0.27 µM; in the assay with MDA-MB-231 (setting [3]) it was 19 µM; with MDA-MB-231 (setting [2]) it was 25 µM; with HT-29 (setting [4]), 16 µM. Moreover, the IC50 was above 20 µM in the assay on HT-29 (setting [2]); 10 µM in the assay with A549 (setting [2]); 23 µM in the assay with MDA-MB-435 (setting [5]); 38 µM in the assay with MDA-MB-435 (setting [2]); 4 µM and 2.5 µM at cdk4/cyclin D1; 16 µM in the assay on PC-3 (setting [6]). The IC50 was 15 µM in the assay on DU 145 (setting [7]) and 17 µM with DU 145 (setting [2]).
Consider `CNc1nc(N[C@H]2CC[C@H](N)CC2)nc2c1ncn2C1CCCC1` [Example 28, 2-[Trans-(4-aminocyclohexyl)amino]-6-(methylamino)-9-cyclopentylpurine dihydrochloride], for which the IC50 was 1.9 µM in the assay with Colo-205 (setting [8]); 2.1 µM with Colo-205 (setting [2]); 1.4 µM in the assay with DMS-114 (setting [1]); 0.038 µM on cdk2/cyclin E; 1.3 µM with MDA-MB-231 (setting [3]); 1.6 µM in the assay on MDA-MB-231 (setting [2]). For the same molecule, the IC50 was 1.8 µM in the assay on HT-29 (setting [4]); 3.2 µM in the assay with MDA-MB-435 (setting [5]); 4.5 µM in the assay on MDA-MB-435 (setting [2]); 0.19 µM and 0.22 µM on cdk4/cyclin D1; 1.7 µM in the assay with DU 145 (setting [7]); 0.86 µM with DU 145 (Homo sapiens, DU-145, values without *).
`N[C@H]1CC[C@H](Nc2nc(NNCC(F)(F)F)c3ncn(C4CCCC4)c3n2)CC1` [Example 52, 2-[Trans-(4-aminocyclohexyl)amino]-6-[2,2,2-trifluoroethylhydrazino]-9-cyclopentylpurine dihydrochloride]: the IC50 with Colo-205 (setting [8]) is 3.1 µM; in the assay on Colo-205 (setting [2]) it was 3.2 µM; with DMS-114 (setting [1]), 1.7 µM; on cdk2/cyclin E it was 91 nM and 44 nM (2×); in the assay with MDA-MB-231 (setting [3]), 2.7 µM; with MDA-MB-231 (setting [2]), 3.1 µM. The IC50 in the assay with HT-29 (setting [4]) was 3.6 µM; with MDA-MB-435 (setting [5]), 5.6 µM; in the assay with MDA-MB-435 (setting [2]) it was 5.1 µM; at cdk4/cyclin D1 it was 1.8 µM; with DU 145 (setting [7]) it was 2.3 µM; in the assay on DU 145 (setting [2]), 2.8 µM.
